Test results reported in publication PMC7486443, “Generation of Phenothiazine with Potent Anti-TLK1 Activity for Prostate Cancer Therapy” (iScience, 2020).

Key:
Assay in all cases: biochemical
Set-up in all cases: DiscoverX KINOMEscan scanMAX competition binding panel, single concentration, percent of control; remaining binding: dose or concentration left out as unconfirmed
Conditions in all cases: KINOMEscan binding, percent of control; read-out: Table S4_SCANMAX REPORT - related to Fig. 1 / Percent Control
BMPR1A = BMPR1A (Homo sapiens, UniProt P36894)
BMPR1A, sequence (P36894 whole entry): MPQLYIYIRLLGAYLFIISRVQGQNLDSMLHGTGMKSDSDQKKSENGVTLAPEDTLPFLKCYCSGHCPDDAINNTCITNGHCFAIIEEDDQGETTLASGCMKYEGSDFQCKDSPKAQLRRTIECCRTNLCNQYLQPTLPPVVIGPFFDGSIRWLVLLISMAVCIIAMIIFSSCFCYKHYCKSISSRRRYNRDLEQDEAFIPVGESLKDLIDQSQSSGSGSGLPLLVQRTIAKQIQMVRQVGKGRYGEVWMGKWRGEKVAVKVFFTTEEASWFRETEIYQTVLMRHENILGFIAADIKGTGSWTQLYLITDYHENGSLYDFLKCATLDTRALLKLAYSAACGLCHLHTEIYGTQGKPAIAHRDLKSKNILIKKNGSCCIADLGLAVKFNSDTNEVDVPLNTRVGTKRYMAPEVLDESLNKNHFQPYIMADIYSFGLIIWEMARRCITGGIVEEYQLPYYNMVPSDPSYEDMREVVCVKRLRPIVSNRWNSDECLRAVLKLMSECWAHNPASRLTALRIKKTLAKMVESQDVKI

BRK = target: T1, BRK (Homo sapiens, UniProt Q13882)
T1 construct: gene PTK6
T1 sequence (Q13882 whole entry): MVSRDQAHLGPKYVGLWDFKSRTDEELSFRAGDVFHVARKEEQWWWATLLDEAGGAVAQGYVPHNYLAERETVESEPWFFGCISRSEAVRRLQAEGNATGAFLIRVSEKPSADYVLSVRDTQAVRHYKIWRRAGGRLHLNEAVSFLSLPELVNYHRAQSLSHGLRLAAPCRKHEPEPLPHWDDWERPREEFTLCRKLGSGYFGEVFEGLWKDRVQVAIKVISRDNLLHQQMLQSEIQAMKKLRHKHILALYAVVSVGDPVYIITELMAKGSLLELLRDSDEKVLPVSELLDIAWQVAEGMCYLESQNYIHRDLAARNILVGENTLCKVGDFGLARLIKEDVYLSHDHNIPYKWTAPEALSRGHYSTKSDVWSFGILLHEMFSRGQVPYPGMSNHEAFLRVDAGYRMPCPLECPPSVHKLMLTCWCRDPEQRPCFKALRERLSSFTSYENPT

CDK4-cyclinD1 = target: T2, CDK4-cyclinD1 (Homo sapiens, UniProt P11802)
T2 construct: cyclinD1

CHEK1 = CHEK1 (Homo sapiens, UniProt O14757)
DCAMKL1 = target: T3, DCAMKL1 (Homo sapiens, UniProt O15075)
T3 construct: gene DCLK1

DDR1 = DDR1 (Homo sapiens, UniProt Q08345)
EGFR(L858R) = EGFR(L858R) (Homo sapiens, UniProt P00533, L858R)
EGFR(L858R), sequence (P00533 whole entry L858R): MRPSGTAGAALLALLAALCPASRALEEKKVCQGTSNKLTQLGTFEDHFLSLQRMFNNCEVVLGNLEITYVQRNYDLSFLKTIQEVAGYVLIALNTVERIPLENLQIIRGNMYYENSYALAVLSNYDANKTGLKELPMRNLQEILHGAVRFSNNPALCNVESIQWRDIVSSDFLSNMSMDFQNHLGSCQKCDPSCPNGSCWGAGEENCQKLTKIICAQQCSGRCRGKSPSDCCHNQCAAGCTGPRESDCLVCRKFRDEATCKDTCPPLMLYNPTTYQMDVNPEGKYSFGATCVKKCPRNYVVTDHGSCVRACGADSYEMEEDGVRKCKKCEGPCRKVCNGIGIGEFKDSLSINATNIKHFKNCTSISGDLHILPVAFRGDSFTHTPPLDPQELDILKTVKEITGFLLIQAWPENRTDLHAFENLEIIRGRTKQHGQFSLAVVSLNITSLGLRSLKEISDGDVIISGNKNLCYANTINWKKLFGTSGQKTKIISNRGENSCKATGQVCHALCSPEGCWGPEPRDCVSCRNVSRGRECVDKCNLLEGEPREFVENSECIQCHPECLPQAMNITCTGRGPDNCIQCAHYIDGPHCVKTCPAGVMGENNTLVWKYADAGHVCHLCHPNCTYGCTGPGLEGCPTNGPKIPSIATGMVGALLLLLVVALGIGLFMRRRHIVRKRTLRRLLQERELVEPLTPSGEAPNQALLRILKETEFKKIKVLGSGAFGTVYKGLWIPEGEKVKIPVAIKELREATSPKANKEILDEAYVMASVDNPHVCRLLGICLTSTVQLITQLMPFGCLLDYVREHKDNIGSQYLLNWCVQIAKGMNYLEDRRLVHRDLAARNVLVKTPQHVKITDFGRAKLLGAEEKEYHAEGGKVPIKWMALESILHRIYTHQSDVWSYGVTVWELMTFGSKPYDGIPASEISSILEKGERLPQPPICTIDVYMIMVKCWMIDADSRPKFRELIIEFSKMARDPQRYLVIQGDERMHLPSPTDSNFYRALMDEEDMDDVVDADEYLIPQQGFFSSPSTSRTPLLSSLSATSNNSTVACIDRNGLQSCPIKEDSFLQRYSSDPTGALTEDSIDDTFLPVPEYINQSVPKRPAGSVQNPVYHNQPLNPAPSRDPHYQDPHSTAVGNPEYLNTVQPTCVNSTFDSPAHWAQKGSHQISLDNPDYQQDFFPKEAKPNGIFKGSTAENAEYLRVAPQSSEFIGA

EPHA1 = EPHA1 (Homo sapiens, UniProt P21709)
EPHA1, sequence (P21709 whole entry): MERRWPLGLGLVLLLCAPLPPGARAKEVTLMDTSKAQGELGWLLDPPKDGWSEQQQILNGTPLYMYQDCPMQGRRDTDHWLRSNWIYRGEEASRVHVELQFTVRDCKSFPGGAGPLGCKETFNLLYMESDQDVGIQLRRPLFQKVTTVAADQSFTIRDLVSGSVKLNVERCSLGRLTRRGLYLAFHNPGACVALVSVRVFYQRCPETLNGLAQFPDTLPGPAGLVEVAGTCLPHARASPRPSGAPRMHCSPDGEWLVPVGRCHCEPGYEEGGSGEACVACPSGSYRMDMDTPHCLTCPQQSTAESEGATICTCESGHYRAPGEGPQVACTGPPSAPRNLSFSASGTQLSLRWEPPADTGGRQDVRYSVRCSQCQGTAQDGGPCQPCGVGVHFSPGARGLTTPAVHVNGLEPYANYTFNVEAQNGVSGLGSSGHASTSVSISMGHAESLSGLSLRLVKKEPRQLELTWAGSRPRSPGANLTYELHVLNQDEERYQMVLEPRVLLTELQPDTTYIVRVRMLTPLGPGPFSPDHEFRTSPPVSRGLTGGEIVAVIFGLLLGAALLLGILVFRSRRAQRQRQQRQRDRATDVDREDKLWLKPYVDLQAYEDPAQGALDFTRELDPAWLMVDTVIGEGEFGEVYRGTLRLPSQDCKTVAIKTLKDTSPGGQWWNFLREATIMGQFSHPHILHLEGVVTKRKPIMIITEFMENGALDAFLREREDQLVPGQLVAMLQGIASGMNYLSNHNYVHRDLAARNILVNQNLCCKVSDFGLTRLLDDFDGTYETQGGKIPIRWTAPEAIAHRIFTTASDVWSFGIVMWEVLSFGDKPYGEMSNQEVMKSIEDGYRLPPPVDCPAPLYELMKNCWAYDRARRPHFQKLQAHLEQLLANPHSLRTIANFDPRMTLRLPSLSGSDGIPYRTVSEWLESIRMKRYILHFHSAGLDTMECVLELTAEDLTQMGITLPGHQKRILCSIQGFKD

FLT3(D835V) = FLT3(D835V) (Homo sapiens, UniProt P36888, D835V)
GRK4 = GRK4 (Homo sapiens, UniProt P32298)
GRK4, sequence (P32298 whole entry): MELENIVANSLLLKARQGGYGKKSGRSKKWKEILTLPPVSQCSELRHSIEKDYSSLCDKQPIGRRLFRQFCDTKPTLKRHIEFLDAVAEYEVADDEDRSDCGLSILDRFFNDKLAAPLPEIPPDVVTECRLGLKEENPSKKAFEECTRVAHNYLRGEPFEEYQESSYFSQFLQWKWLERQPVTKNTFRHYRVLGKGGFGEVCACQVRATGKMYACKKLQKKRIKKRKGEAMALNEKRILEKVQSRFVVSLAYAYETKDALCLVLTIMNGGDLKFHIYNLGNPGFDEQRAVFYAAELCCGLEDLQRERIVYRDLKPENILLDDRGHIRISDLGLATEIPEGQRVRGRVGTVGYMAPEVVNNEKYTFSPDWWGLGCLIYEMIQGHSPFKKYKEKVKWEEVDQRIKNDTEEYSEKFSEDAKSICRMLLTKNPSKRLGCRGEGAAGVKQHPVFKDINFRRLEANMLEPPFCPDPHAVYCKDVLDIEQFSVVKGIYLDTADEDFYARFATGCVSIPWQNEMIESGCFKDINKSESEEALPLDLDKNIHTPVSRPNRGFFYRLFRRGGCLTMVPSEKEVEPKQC

HIPK2 = HIPK2 (Homo sapiens, UniProt Q9H2X6)
IGF1R = IGF1R (Homo sapiens, UniProt P08069)
LCK = LCK (Homo sapiens, UniProt P06239)
MEK3 = target: T4, MEK3 (Homo sapiens, UniProt P46734)
T4 construct: gene MAP2K3
T4 sequence (P46734 whole entry): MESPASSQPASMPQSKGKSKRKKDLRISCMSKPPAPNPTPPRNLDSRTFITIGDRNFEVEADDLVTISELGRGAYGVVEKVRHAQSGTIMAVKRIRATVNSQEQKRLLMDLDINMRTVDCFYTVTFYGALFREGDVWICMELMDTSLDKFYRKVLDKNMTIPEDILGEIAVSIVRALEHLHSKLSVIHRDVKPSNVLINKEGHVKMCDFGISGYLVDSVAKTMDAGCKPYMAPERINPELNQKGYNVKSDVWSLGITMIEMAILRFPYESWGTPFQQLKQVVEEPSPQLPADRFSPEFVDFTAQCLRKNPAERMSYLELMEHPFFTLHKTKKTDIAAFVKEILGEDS

MLK1 = target: T5, MLK1 (Homo sapiens, UniProt P80192)
T5 construct: gene MAP3K9

[1] = target: T6, RPS6KA4(Kin.Dom.1-N-terminal) (Homo sapiens, UniProt O75676)
T6 construct: Kin.Dom.1-N-terminal
T6 sequence (O75676 whole entry): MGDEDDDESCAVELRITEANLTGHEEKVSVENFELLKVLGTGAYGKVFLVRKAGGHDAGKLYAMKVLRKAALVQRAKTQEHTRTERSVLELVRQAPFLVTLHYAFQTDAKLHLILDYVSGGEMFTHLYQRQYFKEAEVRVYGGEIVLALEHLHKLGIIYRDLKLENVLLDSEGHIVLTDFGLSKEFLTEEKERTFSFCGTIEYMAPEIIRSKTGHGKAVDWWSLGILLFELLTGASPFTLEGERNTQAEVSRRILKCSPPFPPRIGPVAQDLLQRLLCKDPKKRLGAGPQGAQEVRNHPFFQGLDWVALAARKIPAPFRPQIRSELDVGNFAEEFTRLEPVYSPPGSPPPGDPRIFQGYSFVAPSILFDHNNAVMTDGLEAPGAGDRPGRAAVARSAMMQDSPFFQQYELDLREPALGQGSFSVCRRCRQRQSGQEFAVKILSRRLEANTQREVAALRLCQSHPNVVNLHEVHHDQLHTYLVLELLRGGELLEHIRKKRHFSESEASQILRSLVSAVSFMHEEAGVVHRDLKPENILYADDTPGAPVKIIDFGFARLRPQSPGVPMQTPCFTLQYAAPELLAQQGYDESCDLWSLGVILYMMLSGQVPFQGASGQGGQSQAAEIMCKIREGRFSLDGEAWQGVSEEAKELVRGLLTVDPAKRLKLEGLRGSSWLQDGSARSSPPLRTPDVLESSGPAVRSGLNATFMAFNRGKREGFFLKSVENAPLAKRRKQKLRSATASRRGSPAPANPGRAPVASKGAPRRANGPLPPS

SNRK = SNRK (Homo sapiens, UniProt Q9NRH2)
SYK = SYK (Homo sapiens, UniProt P43405)

`c1ccc2c(c1)Sc1ccccc1N2CCN1CCOCC1` [J54] gave a remaining binding (BMPR1A) of 72%, a remaining binding (BRK) of 100% and a remaining binding (CDK4-cyclinD1) of 36%. It also gave a remaining binding (CHEK1) of 100%, a remaining binding (DCAMKL1) of 100% and a remaining binding (DDR1) of 100%. For the same molecule, the remaining binding (EGFR(L858R)) was 92%, the remaining binding (EPHA1) was 100% and the remaining binding (FLT3(D835V)) was 46%. The remaining binding (GRK4) was 54%, the remaining binding (HIPK2) was 100% and the remaining binding (IGF1R) was 56%. The remaining binding (LCK) was 100%, the remaining binding (MEK3) was 100% and the remaining binding (MLK1) was 97%. For the same molecule, the remaining binding [1] was 75%, the remaining binding (SNRK) was 59% and the remaining binding (SYK) was 100%.
